The test system of one assay is Aspergillus nidulans. Put plainly: Antifungal activity against Aspergillus nidulans ATCC 38163 measured after 48 hrs by CLSI M38-A2 protocol based method. It counts as functional. The note with it: ATCC 38163, 48 h.
Assay [1] concerns Candida albicans. Put plainly: Antifungal activity against fluconazole/ITC-susceptible Candida albicans ATCC MYA-2310 measured after 48 hrs by CLSI M27-A3 protocol based method. Format: functional.
In assay [2] the test system is Candida albicans. Put plainly: Antifungal activity against Candida albicans ATCC 10231 measured after 48 hrs by CLSI M27-A3 protocol based method. It counts as functional. To be noted: ATCC 10231, 48 h.
Assay [3] has as its system Candida parapsilosis. Put plainly: Antifungal activity against Candida parapsilosis ATCC 22019 measured after 48 hrs by CLSI M27-A3 protocol based method. It counts as functional. The note with it: for MIC: Lodderomyces parapsilosis, ATCC 22019, 48 h.
Assay [4] concerns Nakaseomyces glabratus. Kind of assay: Antifungal activity against Candida glabrata ATCC 2001 measured after 48 hrs by CLSI M27-A3 protocol based method. Format: functional, CBS 138.
The subject of the next assay is Aspergillus terreus. Kind of assay: Antifungal activity against Aspergillus terreus ATCC MYA-3633 measured after 48 hrs by CLSI M38-A2 protocol based method. Format: functional. The note with it: ATCC MYA-3633, 48 h.
Assay [5] concerns Candida albicans. Put plainly: Antifungal activity against fluconazole/ITC-resistant Candida albicans ATCC MYA-1237 measured after 48 hrs by CLSI M27-A3 protocol based method. To be noted: Candida albicans, ATCC MYA-1237, 48 h; read-out: MIC. Format: functional.
The test system of assay [6] is Candida albicans. Kind of assay: Antifungal activity against fluconazole/ITC-resistant Candida albicans ATCC MYA-1003 measured after 48 hrs by CLSI M27-A3 protocol based method. It counts as functional. To be noted: Candida albicans, ATCC MYA-1003, 48 h; read-out: MIC.
In assay [7] the test system is Candida parapsilosis. Put plainly: Antifungal activity against Candida parapsilosis isolate CP2 measured after 48 hrs by CLSI M27-A3 protocol based method. It counts as functional. To be noted: for MIC: Lodderomyces parapsilosis, isolate CP2, 48 h.
The test system of assay [8] is Candida albicans. Kind of assay: Antifungal activity against fluconazole/ITC-resistant Candida albicans ATCC 90819 measured after 48 hrs by CLSI M27-A3 protocol based method. Format: functional.
Assay [9] relates to Candida albicans. Kind of assay: Antifungal activity against Candida albicans ATCC 64124 measured after 48 hrs by CLSI M27-A3 protocol based method. Format: functional.
The test system of assay [10] is Candida parapsilosis. Put plainly: Antifungal activity against Candida parapsilosis isolate CP3 measured after 48 hrs by CLSI M27-A3 protocol based method. It counts as functional. The note with it: for MIC: Lodderomyces parapsilosis, isolate CP3, 48 h.
In assay [11] the test system is Nakaseomyces glabratus. Put plainly: Antifungal activity against Candida glabrata isolate CG3 measured after 48 hrs by CLSI M27-A3 protocol based method. Format: functional.
Assay [12] deals with Nakaseomyces glabratus. Kind of assay: Antifungal activity against Candida glabrata isolate CG2 measured after 48 hrs by CLSI M27-A3 protocol based method. It counts as functional.
Assay [13] deals with Candida albicans. Kind of assay: Antifungal activity against fluconazole/ITC-susceptible Candida albicans ATCC MYA-2876 measured after 48 hrs by CLSI M27-A3 protocol based method. It counts as functional. To be noted: for MIC: Candida albicans, ATCC MYA-2876, 48 h.
The subject of assay [14] is Cryptococcus neoformans. Kind of assay: Antifungal activity against Cryptococcus neoformans isolate CN3 measured after 48 hrs by CLSI M27-A3 protocol based method. Format: functional.
In the next assay the test system is Pichia kudriavzevii. Kind of assay: Antifungal activity against Candida krusei ATCC 6258 measured after 48 hrs by CLSI M27-A3 protocol based method. It counts as functional. To be noted: for MIC: Pichia kudriavzevii, ATCC 6258, 48 h.
Assay [15] concerns Cryptococcus neoformans. Put plainly: Antifungal activity against Cryptococcus neoformans isolate CN1 measured after 48 hrs by CLSI M27-A3 protocol based method. Format: functional. To be noted: isolate CN1, 48 h.
Assay [16] relates to Candida parapsilosis. Put plainly: Antifungal activity against Candida parapsilosis isolate CP1 measured after 48 hrs by CLSI M27-A3 protocol based method. Format: functional. The note with it: for MIC: Lodderomyces parapsilosis, isolate CP1, 48 h.
For another assay, the system named is Aspergillus flavus. Kind of assay: Antifungal activity against Aspergillus flavus ATCC MYA-3631 measured after 48 hrs by CLSI M38-A2 protocol based method. It counts as functional. The note with it: ATCC MYA-3631, 48 h.
Assay [17] concerns Nakaseomyces glabratus. Put plainly: Antifungal activity against Candida glabrata isolate CG1 measured after 48 hrs by CLSI M27-A3 protocol based method. It counts as functional.
Assay [18] concerns Cryptococcus neoformans. Put plainly: Antifungal activity against Cryptococcus neoformans isolate CN2 measured after 48 hrs by CLSI M27-A3 protocol based method. It counts as functional.
The mark [19] stands for this setting: Candida albicans, ATCC MYA-2310, 48 h, read-out: MIC.
Setting [20] is: Nakaseomyces glabratus, CBS 138, 48 h, read-out: MIC.
[21] abbreviates: Candida albicans, ATCC 90819, 48 h, read-out: MIC.
The mark [22] stands for this setting: Candida albicans, ATCC 64124, 48 h, read-out: MIC.
Where [23] appears, read: Nakaseomyces glabratus, 48 h, read-out: MIC.
Where [24] appears, read: Nakaseomyces glabratus, isolate CG2, 48 h, read-out: MIC.
Where [25] appears, read: Cryptococcus neoformans, isolate CN3, 48 h, read-out: MIC.
[26] abbreviates: Cryptococcus neoformans, isolate CN2, 48 h, read-out: MIC.

Molecules are shown by their SMILES. Converted amounts (≈) assume the structure as drawn.

For `CCCCCCCCN(CCCCCCCC)CC(O)(Cn1cncn1)c1ccc(F)cc1F` (stereo not drawn), the minimal inhibitory concentration (MIC) was 32.7 µM (≈ 15.7 µg/mL) in the assay on Aspergillus nidulans; more than 65.4 µM in the assay on Candida albicans [1] (setting [19]); 65.4 µM (≈ 31.3 µg/mL) with Candida albicans [2]; 2 µM (≈ 0.957 µg/mL) against Candida parapsilosis [3]; 65.4 µM (≈ 31.3 µg/mL) in the assay on Nakaseomyces glabratus [4] (setting [20]); more than 65.4 µM with Aspergillus terreus. Further, the MIC in the assay with Candida albicans [5] was 65.4 µM (≈ 31.3 µg/mL); with Candida albicans [6], more than 65.4 µM; in the assay on Candida parapsilosis [7], 4.1 µM (≈ 1.96 µg/mL); in the assay on Candida albicans [8] (setting [21]), 65.4 µM (≈ 31.3 µg/mL); with Candida albicans [9] (setting [22]), more than 65.4 µM; in the assay with Candida parapsilosis [10], 4.1 µM (≈ 1.96 µg/mL). In addition, the MIC with Nakaseomyces glabratus [11] (setting [23]) is 65.4 µM (≈ 31.3 µg/mL); in the assay on Nakaseomyces glabratus [12] (setting [24]), 16.3 µM (≈ 7.8 µg/mL); in the assay on Candida albicans [13], 65.4 µM (≈ 31.3 µg/mL); with Cryptococcus neoformans [14] (setting [25]) it was more than 65.4 µM; in the assay with Pichia kudriavzevii, 65.4 µM (≈ 31.3 µg/mL); in the assay with Cryptococcus neoformans [15] it was more than 65.4 µM. The MIC against Candida parapsilosis [16] was 2 µM (≈ 0.957 µg/mL); against Aspergillus flavus, more than 65.4 µM; in the assay on Nakaseomyces glabratus [17] (setting [23]) it was 32.6 µM (≈ 15.6 µg/mL); with Cryptococcus neoformans [18] (setting [26]), more than 65.4 µM.

In the case of `CCCCCCN(CCCCCC)CC(O)(Cn1cncn1)c1ccc(F)cc1F` (stereo not drawn), the MIC with Aspergillus nidulans is more than 74.1 µM; in the assay on Candida albicans [1] (setting [19]) it was more than 74.1 µM; against Candida albicans [2], more than 74.1 µM; against Candida parapsilosis [3], 74.1 µM (≈ 31.3 µg/mL); in the assay with Nakaseomyces glabratus [4] (setting [20]), more than 74.1 µM; in the assay with Aspergillus terreus, more than 74.1 µM. Moreover, the minimal inhibitory concentration (MIC) in the assay on Candida albicans [5], in the assay with Candida albicans [6], against Candida parapsilosis [7], with Candida albicans [8] (setting [21]), in the assay with Candida albicans [9] (setting [22]) and against Candida parapsilosis [10] was more than 74.1 µM each time. For the same molecule, the MIC in the assay on Nakaseomyces glabratus [11] (setting [23]) is more than 74.1 µM; in the assay with Nakaseomyces glabratus [12] (setting [24]), more than 74.1 µM; against Candida albicans [13] it was more than 74.1 µM; in the assay on Cryptococcus neoformans [14] (setting [25]) it was 37.1 µM (≈ 15.7 µg/mL); with Pichia kudriavzevii it was more than 74.1 µM; against Cryptococcus neoformans [15], more than 74.1 µM. The MIC against Candida parapsilosis [16], with Aspergillus flavus, with Nakaseomyces glabratus [17] (setting [23]) and in the assay with Cryptococcus neoformans [18] (setting [26]) was more than 74.1 µM each time.

As for `OC(Cn1cncn1)(Cn1cncn1)c1ccc(F)cc1F` [FLUCONAZOLE], the MIC is more than 408.1 µM against Candida albicans [1]; “>=102.2 - 204.1 uM” against Nakaseomyces glabratus [4]; more than 408.1 µM in the assay on Candida albicans [8]; more than 408.1 µM against Candida albicans [9]; more than 102.1 µM in the assay with Nakaseomyces glabratus [11]; more than 102.1 µM against Nakaseomyces glabratus [12]. The MIC in the assay with Cryptococcus neoformans [14], in the assay with Nakaseomyces glabratus [17] and against Cryptococcus neoformans [18] was more than 102.1 µM each time. The “MIC=<50” value is 6.4 µM (≈ 1.96 µg/mL) with Candida parapsilosis [3]; 3.2 µM (≈ 0.98 µg/mL) in the assay with Candida parapsilosis [7]; 3.2 µM (≈ 0.98 µg/mL) against Candida parapsilosis [10]; 50.9 µM (≈ 15.6 µg/mL) against Candida albicans [13]; more than 102.2 µM in the assay on Pichia kudriavzevii; 3.2 µM (≈ 0.98 µg/mL) in the assay with Candida parapsilosis [16].

As for `CCCCCOCCCCCCNCC(O)(Cn1cncn1)c1ccc(F)cc1F` (stereo not drawn), the MIC with Aspergillus nidulans is 18.4 µM (≈ 7.81 µg/mL); with Candida albicans [1] (setting [19]), 36.7 µM (≈ 15.6 µg/mL); in the assay with Candida albicans [2] it was 9.2 µM (≈ 3.91 µg/mL); in the assay with Candida parapsilosis [3] it was 0.57 µM (≈ 0.242 µg/mL); in the assay on Nakaseomyces glabratus [4] (setting [20]), 9.2 to 36.7 µM (≈ 3.91 to 15.6 µg/mL); in the assay with Aspergillus terreus it was 73.7 µM (≈ 31.3 µg/mL). Moreover, the MIC with Candida albicans [5] was 9.2 µM (≈ 3.91 µg/mL); with Candida albicans [6], 18.4 µM (≈ 7.81 µg/mL); against Candida parapsilosis [7], 0.28 µM (≈ 0.119 µg/mL); in the assay with Candida albicans [8] (setting [21]) it was 9.2 µM (≈ 3.91 µg/mL); in the assay with Candida albicans [9] (setting [22]) it was more than 73.7 µM; against Candida parapsilosis [10], 0.28 µM (≈ 0.119 µg/mL). The MIC amounted to 73.7 µM (≈ 31.3 µg/mL) in the assay with Nakaseomyces glabratus [11] (setting [23]); 4.6 µM (≈ 1.95 µg/mL) with Nakaseomyces glabratus [12] (setting [24]); 73.7 µM (≈ 31.3 µg/mL) in the assay on Candida albicans [13]; 4.6 µM (≈ 1.95 µg/mL) in the assay on Cryptococcus neoformans [14] (setting [25]); 4.6 µM (≈ 1.95 µg/mL) in the assay with Pichia kudriavzevii; 1.1 µM (≈ 0.467 µg/mL) in the assay with Cryptococcus neoformans [15]. Further, the minimal inhibitory concentration (MIC) is 0.28 µM (≈ 0.119 µg/mL) in the assay on Candida parapsilosis [16], more than 73.7 µM in the assay with Aspergillus flavus, 36.7 µM (≈ 15.6 µg/mL) in the assay on Nakaseomyces glabratus [17] (setting [23]) and 4.6 µM (≈ 1.95 µg/mL) in the assay on Cryptococcus neoformans [18] (setting [26]).

As for `CC(C)c1ccc(NCC(O)(Cn2cncn2)c2ccc(F)cc2F)cc1` (stereo not drawn), the MIC is 20.9 µM (≈ 7.78 µg/mL) in the assay on Aspergillus nidulans; 84 µM (≈ 31.3 µg/mL) in the assay with Candida albicans [1] (setting [19]); more than 84 µM in the assay with Candida albicans [2]; 20.9 µM (≈ 7.78 µg/mL) in the assay with Candida parapsilosis [3]; 20.9 to 84 µM (≈ 7.78 to 31.3 µg/mL) in the assay with Nakaseomyces glabratus [4] (setting [20]); 41.9 µM (≈ 15.6 µg/mL) against Aspergillus terreus. The MIC with Candida albicans [5] is 84 µM (≈ 31.3 µg/mL); in the assay with Candida albicans [6], 84 µM (≈ 31.3 µg/mL); against Candida parapsilosis [7], 10.5 µM (≈ 3.91 µg/mL); in the assay on Candida albicans [8] (setting [21]), 84 µM (≈ 31.3 µg/mL); in the assay with Candida albicans [9] (setting [22]), more than 84 µM; against Candida parapsilosis [10], 10.5 µM (≈ 3.91 µg/mL). Also, the MIC is 20.9 µM (≈ 7.78 µg/mL) in the assay with Nakaseomyces glabratus [11] (setting [23]); 20.9 µM (≈ 7.78 µg/mL) in the assay on Nakaseomyces glabratus [12] (setting [24]); more than 84 µM against Candida albicans [13]; more than 84 µM in the assay with Cryptococcus neoformans [14] (setting [25]); more than 84 µM against Pichia kudriavzevii; 20.9 µM (≈ 7.78 µg/mL) in the assay on Cryptococcus neoformans [15]. Besides, the MIC was determined as 10.5 µM (≈ 3.91 µg/mL) against Candida parapsilosis [16], 84 µM (≈ 31.3 µg/mL) in the assay with Aspergillus flavus, 20.9 µM (≈ 7.78 µg/mL) with Nakaseomyces glabratus [17] (setting [23]) and 84 µM (≈ 31.3 µg/mL) in the assay with Cryptococcus neoformans [18] (setting [26]).

Broadly, the MIC is the lowest concentration found to suppress growth.
